# Biological target: soluble guanylate cyclase (sGC) (Homo sapiens (Human), UniProt Q02108+Q02153)
# Assay: sGC-HEK-cGMP assay with SNP incubation, LC/MS detection (Example 2A)
# Format: cell-based
# Settings: HEK293 cells, 10 μM SNP, LC/MS detection; for Emax: 100% = BAY 41-2272 at 10 μM, read-out: HEK assay Emax - unconstrained (%); for EC50: top of curve not fitted to 100%, read-out: HEK assay EC50 - unconstrained
# Description: Human embryonic kidney cells (HEK293), endogenously expressing soluble guanylate cyclase (sGC), were used to evaluate the activity of test compounds. Compounds stimulating the sGC receptor should cause an increase in the intracellular concentration of cGMP. HEK 293 cells were seeded in Dulbecco's Modification of Eagle's Medium supplemented with fetal bovine serum (10% final) and L-glutamine (2 mM final) in a 200 L volume at a density of 1×10^5 cells/well in a poly-D-lysine coated 96 well flat bottom plate and grown overnight at 37° C. Medium was aspirated and cells were washed with 1× Hank's Buffered Saline Salt Solution (200 μL). Cells were then incubated for 15 minutes at 37° C. with 200 μL of a 0.5 mM 3-isobutyl-1-methylxanthine (IBMX) solution. Test article and sodium nitroprusside solutions (x μM concentration for test article solution and 10 μM concentration for SNP solution; wherein x is one of the following concentrations: 30 μM, 10 μM, 3 μM, 1 μM, 0.3 μM, 0.1 μM, 0.03 μM, 0.01 μM, 0.003 μM, 0.001 μM, 0.0003 μM or 0.0001 μM) were then added to the assay mixture (2 μL each) and the resulting mixture incubated at 37° C. for 10 minutes. After the 10 minute incubation, the assay mixture was aspirated and 0.1M HCl (200 μL) was added to the cells. The plate was incubated at 4° C. for 30 minutes in the 0.1M HCl to stop the reaction and lyse the cells. The plates were then centrifuged at 1,200 g for 5 minutes at room temperature. Supernatants were collected and transferred to a new flat bottom 96 well plate for analysis by HPLC-MS. Vehicle controls were carried out using DMSO (1%) solutions. A known sGC stimulator, BAY 41-2272, was used as the positive control. Samples were diluted with an equal volume of 1 M Ammonium Acetate (pH 7) to neutralize samples for better chromatography. A 2× cGMP standard solution was prepared in 0.1 M HCl and then diluted with an equal volume of 1 M Ammonium Acetate, with the following final concentrations in nM: 1024, 512, 256, 128, 64, 32, 16, 8, 4, 2, 1. cGMP concentrations in the test plates were determined from each sample using the LC/MS conditions shown in Table 2 below and the calculated cGMP standard curve. EC50 values were calculated from concentration-response curves generated with GraphPad Prism Software. Data were normalized to a high control using the following equation: 100*(Sample−Low Control)/(High Control−Low Control), where the low control is the average of 6 samples treated with 1% DMSO, and the high control is the average of 8-12 samples treated with 10 uM BAY 41-2272. Data were fit using a non-linear regression, sigmoidal dose response, 3 parameter fits.
# Chain of soluble guanylate cyclase (sGC) (Q02153 whole entry): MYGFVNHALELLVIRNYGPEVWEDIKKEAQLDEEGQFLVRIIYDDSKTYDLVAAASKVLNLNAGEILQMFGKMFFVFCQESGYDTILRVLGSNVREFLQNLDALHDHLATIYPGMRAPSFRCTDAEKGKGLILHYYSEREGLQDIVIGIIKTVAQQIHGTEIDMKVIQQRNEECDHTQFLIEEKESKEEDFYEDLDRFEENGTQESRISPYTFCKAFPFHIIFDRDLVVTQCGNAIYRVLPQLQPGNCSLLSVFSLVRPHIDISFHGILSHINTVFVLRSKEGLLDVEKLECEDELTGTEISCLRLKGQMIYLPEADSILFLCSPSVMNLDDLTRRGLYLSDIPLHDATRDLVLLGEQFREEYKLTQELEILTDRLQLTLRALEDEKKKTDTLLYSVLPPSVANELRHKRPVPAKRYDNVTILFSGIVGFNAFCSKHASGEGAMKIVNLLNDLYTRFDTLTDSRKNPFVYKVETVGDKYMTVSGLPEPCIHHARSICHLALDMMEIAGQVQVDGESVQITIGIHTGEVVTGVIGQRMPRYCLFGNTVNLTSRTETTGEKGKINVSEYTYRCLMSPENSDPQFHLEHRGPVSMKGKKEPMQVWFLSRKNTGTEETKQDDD
# Chain of soluble guanylate cyclase (sGC) (Q02108 whole entry): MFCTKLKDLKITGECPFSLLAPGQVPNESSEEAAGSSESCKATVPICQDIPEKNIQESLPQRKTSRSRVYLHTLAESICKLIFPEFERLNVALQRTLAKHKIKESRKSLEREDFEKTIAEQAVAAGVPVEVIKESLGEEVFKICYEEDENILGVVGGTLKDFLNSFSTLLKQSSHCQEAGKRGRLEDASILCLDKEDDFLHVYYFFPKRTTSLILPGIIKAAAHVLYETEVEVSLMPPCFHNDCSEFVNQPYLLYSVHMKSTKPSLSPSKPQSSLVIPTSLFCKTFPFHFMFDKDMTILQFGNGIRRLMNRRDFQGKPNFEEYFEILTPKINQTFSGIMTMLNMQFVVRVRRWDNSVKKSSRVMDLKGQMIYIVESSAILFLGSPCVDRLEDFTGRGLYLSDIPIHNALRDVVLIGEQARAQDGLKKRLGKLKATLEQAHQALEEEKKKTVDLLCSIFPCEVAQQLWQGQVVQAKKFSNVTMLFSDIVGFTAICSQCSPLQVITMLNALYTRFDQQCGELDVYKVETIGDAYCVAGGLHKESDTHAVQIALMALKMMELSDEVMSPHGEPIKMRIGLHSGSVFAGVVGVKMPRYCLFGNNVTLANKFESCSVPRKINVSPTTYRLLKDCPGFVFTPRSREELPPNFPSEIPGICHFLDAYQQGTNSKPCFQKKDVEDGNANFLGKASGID
Structure (SMILES),Emax,EC50
O=C(O)[C@H]1CC[C@@H](Nc2nc(-c3cc(-c4ccon4)n(Cc4ccccc4F)n3)ncc2F)C1 [Compound I-179],80 to 100%,0.1 to 0.5 µM
O=C(O)C(CC(F)(F)F)Nc1nc(-c2cc(-c3ccon3)n(Cc3ccccc3F)n2)ncc1F (centres unmarked) [Compound I-180],80 to 100%,1 to 5 µM
CC(C)[C@@H](CC(=O)O)Nc1nc(-c2cc(-c3ccon3)n(Cc3ccccc3F)n2)ncc1F [Compound I-181],100 to 120%,0.5 to 1 µM
CC(C)[C@H](CC(=O)O)Nc1nc(-c2cc(-c3ccon3)n(Cc3ccccc3F)n2)ncc1F [Compound I-182],80 to 100%,0.001 to 0.1 µM
CC(C)(C)OC(=O)N1CCCN1c1nc(-c2cc(-c3ccon3)n(Cc3ccccc3F)n2)ncc1F [Compound I-183],60 to 80%,0.1 to 0.5 µM
CC(C)(C)OC(=O)N1CCN(c2nc(-c3cc(-c4ccon4)n(Cc4ccccc4F)n3)ncc2F)C(CO)C1 (centres unmarked) [Compound I-184],80 to 100%,0.5 to 1 µM
CCC1(C(=O)O)CCN(c2nc(-c3cc(-c4ccon4)n(Cc4ccccc4F)n3)ncc2F)CC1 [Compound I-189],60 to 80%,0.1 to 0.5 µM
CC1CN(c2nc(-c3cc(-c4ccon4)n(Cc4ccccc4F)n3)ncc2F)CCC1C(=O)O (centres unmarked) [Compound I-190],60 to 80%,1 to 5 µM
Fc1ccccc1Cn1nc(-c2ncc(F)c(N3CCCN3)n2)cc1-c1ccon1 [Compound I-193],60 to 80%,1 to 5 µM
O=C(O)C1(CNc2nc(-c3cc(-c4ccon4)n(Cc4ccccc4F)n3)ncc2F)CCOCC1 [Compound I-194],80 to 100%,0.1 to 0.5 µM
CC(C)C(CC(=O)O)N(C)c1nc(-c2cc(-c3ccon3)n(Cc3ccccc3F)n2)ncc1F (centres unmarked) [Compound I-195],60 to 80%,0.001 to 0.1 µM
CNc1nc(-c2cc(-c3ccon3)n(Cc3ccccc3F)n2)ncc1F [Compound I-196],80 to 100%,
O=C(O)COC1CCN(c2nc(-c3cc(-c4ccon4)n(Cc4ccccc4F)n3)ncc2F)CC1 [Compound I-197],80 to 100%,1 to 5 µM
CSCCC(Nc1nc(-c2cc(-c3ccon3)n(Cc3ccccc3F)n2)ncc1F)C(=O)O (centres unmarked) [Compound I-199],60 to 80%,5 to 10 µM
CCOC(=O)CN(CC1CC1)c1nc(-c2cc(-c3ccon3)n(Cc3ccccc3F)n2)ncc1F [Compound I-201],100 to 120%,0.1 to 0.5 µM
CC(C)[C@@H](CC(=O)O)N(C)c1nc(-c2cc(-c3ccon3)n(Cc3ccccc3F)n2)ncc1F [Compound I-202],80 to 100%,0.1 to 0.5 µM
O=C(O)CN(CC1CC1)c1nc(-c2cc(-c3ccon3)n(Cc3ccccc3F)n2)ncc1F [Compound I-203],40 to 60%,0.1 to 0.5 µM
CCOC(=O)CN(CC(C)C)c1nc(-c2cc(-c3ccon3)n(Cc3ccccc3F)n2)ncc1F [Compound I-205],60 to 80%,0.5 to 1 µM
C[C@@H](C(=O)O)N(C)c1nc(-c2cc(-c3ccon3)n(Cc3ccccc3F)n2)ncc1F [Compound I-207],100 to 120%,0.5 to 1 µM
O=C(O)C12CCCC1CN(c1nc(-c3cc(-c4ccon4)n(Cc4ccccc4F)n3)ncc1F)C2 (centres unmarked) [Compound I-208],80 to 100%,0.001 to 0.1 µM
CC(C)CN(CC(=O)O)c1nc(-c2cc(-c3ccon3)n(Cc3ccccc3F)n2)ncc1F [Compound I-209],80 to 100%,0.5 to 1 µM
O=C(O)C1(CNc2nc(-c3cc(-c4ccon4)n(Cc4ccccc4F)n3)ncc2F)CC1 [Compound I-210],100 to 120%,0.001 to 0.1 µM
OCC1CNCCN1c1nc(-c2cc(-c3ccon3)n(Cc3ccccc3F)n2)ncc1F (centres unmarked) [Compound I-211],> 120%,1 to 5 µM
O=C(N1CCN(c2nc(-c3cc(-c4ccon4)n(Cc4ccccc4F)n3)ncc2F)C(CO)C1)C(F)(F)F (centres unmarked) [Compound I-212],> 120%,0.5 to 1 µM

Structure (SMILES),Emax,EC50
CN(CCCC(=O)O)c1nc(-c2cc(-c3ccon3)n(Cc3ccccc3F)n2)ncc1F [Compound I-215],40 to 60%,1 to 5 µM
O=C(O)CN1CCCN1c1nc(-c2cc(-c3ccon3)n(Cc3ccccc3F)n2)ncc1F [Compound I-216],40 to 60%,0.1 to 0.5 µM
CCC(CC)(CNc1nc(-c2cc(-c3ccon3)n(Cc3ccccc3F)n2)ncc1F)C(=O)O [Compound I-217],60 to 80%,0.1 to 0.5 µM
CONC(=O)CN(C)c1nc(-c2cc(-c3ccon3)n(Cc3ccccc3F)n2)ncc1F [Compound I-218],40 to 60%,1 to 5 µM
Cc1noc(CN(C)c2nc(-c3cc(-c4ccon4)n(Cc4ccccc4F)n3)ncc2F)n1 [Compound I-223],40 to 60%,1 to 5 µM
C[C@H](C[C@H](Nc1nc(-c2cc(-c3ccon3)n(Cc3ccccc3F)n2)ncc1F)C(=O)O)C(F)(F)F [Compound I-224],60 to 80%,1 to 5 µM
C[C@H](C[C@@H](Nc1nc(-c2cc(-c3ccon3)n(Cc3ccccc3F)n2)ncc1F)C(=O)O)C(F)(F)F [Compound I-225],80 to 100%,0.001 to 0.1 µM
CC(C)(F)C(Nc1nc(-c2cc(-c3ccon3)n(Cc3ccccc3F)n2)ncc1F)C(=O)O (centres unmarked) [Compound I-226],60 to 80%,0.001 to 0.1 µM
O=C(O)[C@@H](Nc1nc(-c2cc(-c3ccon3)n(Cc3ccccc3F)n2)ncc1F)C1CC1 [Compound I-227],20 to 40%,0.1 to 0.5 µM
CN(CC1(C(=O)O)CCCC1)c1nc(-c2cc(-c3ccon3)n(Cc3ccccc3F)n2)ncc1F [Compound I-228],0 to 10%,> 10 µM
O=C(O)CC1CCCN(c2nc(-c3cc(-c4ccon4)n(Cc4ccccc4F)n3)ncc2F)C1 (centres unmarked) [Compound I-229],20 to 40%,> 10 µM
COC(=O)CC1CCN(c2nc(-c3cc(-c4ccon4)n(Cc4ccccc4F)n3)ncc2F)CC1 [Compound I-231],40 to 60%,> 10 µM
COCCC(Nc1nc(-c2cc(-c3ccon3)n(Cc3ccccc3F)n2)ncc1F)C(=O)O (centres unmarked) [Compound I-232],80 to 100%,1 to 5 µM
O=C(O)C(Nc1nc(-c2cc(-c3ccon3)n(Cc3ccccc3F)n2)ncc1F)C1CCCCC1 (centres unmarked) [Compound I-233],60 to 80%,0.1 to 0.5 µM
O=C(O)CCC1CCN(c2nc(-c3cc(-c4ccon4)n(Cc4ccccc4F)n3)ncc2F)CC1 [Compound I-234],80 to 100%,0.1 to 0.5 µM
CC(C)[C@@H](C(=O)O)N(C)c1nc(-c2cc(-c3ccon3)n(Cc3cccc(F)c3F)n2)ncc1F [Compound I-235],100 to 120%,0.001 to 0.1 µM
CC(C)[C@H](c1nnn[nH]1)N(C)c1nc(-c2cc(-c3ccon3)n(Cc3ccccc3F)n2)ncc1F [Compound I-237],60 to 80%,0.1 to 0.5 µM
CN(CC1(C(=O)O)CCOCC1)c1nc(-c2cc(-c3ccon3)n(Cc3ccccc3F)n2)ncc1F [Compound I-238],60 to 80%,0.1 to 0.5 µM
O=C(O)[C@H](Nc1nc(-c2cc(-c3ccon3)n(Cc3ccccc3F)n2)ncc1F)C1CC1 [Compound I-240],60 to 80%,0.5 to 1 µM
CN(c1nc(-c2cc(-c3ccon3)n(Cc3ccccc3F)n2)ncc1F)[C@@H](C(=O)O)C1CC1 [Compound I-241],80 to 100%,0.1 to 0.5 µM
CN(c1nc(-c2cc(-c3ccon3)n(Cc3ccccc3F)n2)ncc1F)[C@@H]1CCCC[C@H]1C(=O)O [Compound I-242],100 to 120%,0.1 to 0.5 µM
"O=C(O)[C@H](Nc1nc(-c2cc(-c3ccon3)n(Cc3ccccc3F)n2)ncc1F)C1CCCCC1 [Compound I-243, (R)-2-cyclohexyl-2-((5-fluoro-2-(1-(2-fluorobenzyl)-5-(isoxazol-3-yl)-1H-pyrazol-3-yl)pyrimidin-4-yl)amino)acetic acid]",80 to 100%,0.001 to 0.1 µM
CN(c1nc(-c2cc(-c3ccon3)n(Cc3ccccc3F)n2)ncc1F)C(CC(F)(F)F)C(=O)O (centres unmarked) [Compound I-244],80 to 100%,0.5 to 1 µM
CCOC(=O)CN(c1nc(-c2cc(-c3ccon3)n(Cc3ccccc3F)n2)ncc1F)C1(C)CCOCC1 [Compound I-246],40 to 60%,1 to 5 µM

# Reference: patent US10183021B2, “sGC stimulators” (Ironwood Pharmaceuticals, Inc., priority 2013, dated 2019)
